Laboratory results published in patent US20140294724A1, “COMPOSITIONS AND METHODS FOR TREATMENT OF PROTEINOPATHIES” (Intellect Neurosciences, Inc., priority 2011, published 2014).
Several values for one entry are separate records, joined by “and”; a condition that tells them apart may be missing. Equal entries are not always repeated.

Legend:
[1] = Oxygen Radical Absorbance Capacity assay (ORAC antioxidant test); assay type: biochemical; settings: for Calculated Trolox® equivalents: ratio of slope of sample to slope of Trolox® (Eq. 3)
From the text: Sodium Fluorescein was purchased from Invitrogen. 2,2′-Azobis(2-amidinopropane) dihydrochloride (AAPH), 6-hydroxy-2,5,7,8-tetramethylchroman-2-carboxylic acid (Trolox®), gallic acid, Epigallocatechin gallate (EGCG), epigallocatechin (EGC), and quercetin dihydrate were purchased from Sigma-Aldrich (St. Louis, Mo.). Black-sided, special optics clear bottom plates (part #3615) were obtained from Corning.
The ORAC assay depends on the free radical damage to a fluorescent probe, such as fluorescein, to result in a downward change of fluorescent intensity. The assumption is that the degree of change is indicative of the amount of radical damage. […] This inhibition is observed as a preservation of the fluorescent signal. Reactions containing antioxidants and or blanks are run in parallel using equivalent amounts of a molecule capable of generating super reactive oxygen species (ROS) and fluorescent probe. Because the reaction is driven to completion, one can quantitate the protection by calculating the area under the curve (AUC) from the experimental sample. After subtracting the AUC from the blank, the resultant difference would be the protection conferred by the antioxidant compound. […] The ORAC assay is unique in that because the assay is driven to completion the AUC calculation combines both the inhibition time as well inhibition percentage of free radical damage by the antioxidant into a single quantity.
Reactive oxygen species generators were added to parallel reactions containing equal amounts of a fluorescent probe. Reactions contained either a buffer blank or antioxidant samples and standards. The antioxidant capacity of a sample is the net difference between the area under the curve (AUC) of the sample and that of the blank. The exterior wells were not used for experimental determinations. 200 μL of MilliQ dH2O was added to the outer wells surrounding the test wells in order to minimize evaporation. 150 μL sodium fluorescein was added to experimental wells. […] The plate was allowed to equilibrate by incubating for 30 min in the Victor2^V Microplate Reader (Perkin Elmer, Waltham, Mass.) at 37° C. Reactions were initiated by the addition 25 μL of AAPH solution (free radical initiator) for a final reaction volume of 200 μl. The fluorescence was monitored kinetically in Victor2V with temperature control reader for at least 80 min with data taken every minute. Fast orbital shaking (0.5 mm) for 10 sec was performed prior to each reading. The temperature was set to 37° C. at all time and the reagents were treated as light sensitive.
AUC=(R1/R1)+(R2/R1)+(R3/R1)+ . . . +(Rn/R1) (Eq. 1)
Where R1 is the fluorescence reading at the initiation of the reaction and Rn is the last measurement.
Net AUC=AUC(sample)−AUC(blank) (Eq. 2)
The resultant standard curve was then interpolated to determine of antioxidant capacity of the samples and reported as Trolox® equivalence. To determine Trolox® equivalents of each sample range the ratio of the slope (m) of the linear regression analysis of the sample to the slope of the linear regression of Trolox® was used:
TE(range of concentrations)=m(sample)/m(Trolox®) (Eq. 3)

[2] = system: moderate-stage AD patients; settings: 2000 IU per day; cited from earlier work
patients with AD = settings: 250 mg dose, cited from earlier work
β-Amyloid 1-40 peptide = target: T1, β-Amyloid 1-40 peptide (Homo sapiens, UniProt P05067); experiment: β-Amyloid aggregation, Thioflavin T fluorescence assay; assay type: biochemical; settings: 24 hours; for reduction of fibrillogenesis: with ApoE4 added (about 1/80 of test compound), equimolar with Aβ; for potency in reducing fibrillogenesis compared with melatonin: with ApoE4 added
T1 construct: 60 μM β-Amyloid 1-40
T1 sequence (P05067 672-711): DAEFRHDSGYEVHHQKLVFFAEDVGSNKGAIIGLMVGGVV
Procedure: In a NUNC PP 96-well plate 100 μL of MilliQ dH2O was added to the outer wells surrounding the test wells in order to minimize evaporation. Samples in a final volume of 100 μl/well were added to the 96-well plate as follows:
Aggregation was measured at 0 and 24 hours incubation time.
5 μL was obtained from each test sample after incubation and added to 2 mL of a glycine/NaOH buffer (50 mM, pH 9.2) containing 3 μM thioflavin T. Fluorescence intensities were measured at an excitation wavelength of 450 nm and an emission wavelength of 485 nm in a Envision fluorescence spectrophotometer. A time scan of fluorescence intensity was performed, and three measurements were taken after the decay reached a plateau at 200, 220, and 240 s and averaged after subtracting the background fluorescence of 3 μM thioflavin T in the blank buffers. […] All measurements were taken in triplicate. Siliconized polypropylene microcentrifuge tubes (USA Scientific) were used for these experiments. Solutions of recombinant apolipoproteins were immediately lyophilized and, prior to being used, resuspended in 0.1 M tris-phosphate-HCl buffer (pH 7.4). […] Solutions of Aβ were prepared by dissolving 2.2 mg of the peptide in 1 mL of 50 mM buffer at pH 9.6. Aliquots (50 uL) of this solution were lyophilized and stored at −80° C. until they were needed for the experiments. Working stock solutions of the peptide (concentration of 500 uM) were prepared in HPLC-grade water immediately prior to the experiments. The absence of aggregates and amyloid fibrils in these solutions was verified by spectrofluorometry.

Compound | AUC ([1]; Concentration 0.390625) | Net AUC ([1]; Concentration 0.390625) | AUC ([1]; Concentration 0.78125) | Net AUC ([1]; Concentration 0.78125) | AUC ([1]; Concentration 1.5625) | Net AUC ([1]; Concentration 1.5625) | AUC ([1]; Concentration 3.125) | Net AUC ([1]; Concentration 3.125) | AUC ([1]; Concentration 6.25) | Net AUC ([1]; Concentration 6.25) | AUC ([1]; Concentration 12.5) | Net AUC ([1]; Concentration 12.5) | AUC ([1]; Concentration 25) | Net AUC ([1]; Concentration 25) | AUC ([1]; Concentration 50) | Net AUC ([1]; Concentration 50) | AUC ([1]; Concentration 100) | Net AUC ([1]; Concentration 100) | reduction of fibrillogenesis (β-Amyloid 1-40 peptide) [%] | potency in reducing fibrillogenesis compared with melatonin (β-Amyloid 1-40 peptide) | other results
Cc1c(C)c2c(c(C)c1O)CCC(C)(C(=O)O)O2 (stereo not shown) [Trolox, 6-hydroxy-2,5,7,8-tetramethylchroman-2-carboxylic acid] | 11.95 and 13.53 and 11.49 | 5.30 and 7.10 and 5.27 | 14.90 and 15.01 and 14.62 | 8.24 and 8.58 and 8.39 | 20.00 and 19.69 and 19.52 | 13.34 and 13.26 and 13.30 | 28.96 and 29.49 and 28.51 | 22.31 and 23.06 and 22.29 | 44.91 and 44.55 and 43.41 | 38.25 and 38.12 and 37.18 | 77.61 and 74.88 and 73.04 | 70.96 and 68.45 and 66.81 | 96.34 and 100.28 and 98.61 | 89.68 and 93.85 and 92.39 | 98.05 and 97.48 and 100.67 | 91.40 and 91.05 and 94.45 | 95.82 and 99.05 and 97.58 | 89.17 and 92.62 and 91.35 |  |  | protection of fluorescein against oxidation ([1]; 6.25 μM, lowest concentration tested, versus buffer only control): only slight protection; duration of virtually full protection of fluorescein against oxidation ([1]; 100 μM, highest concentration tested): approximately 20 minutes
COc1ccc2[nH]cc(CCNC(C)=O)c2c1 [Melatonin, N-[2-(5-Methoxyindol-3-yl)ethyl]acetamide] | 14.74 | 8.09 | 20.89 | 14.24 | 28.74 | 22.09 | 42.59 | 35.94 | 66.10 | 59.45 | 88.65 | 82.00 | 93.12 | 86.47 | 94.75 | 88.10 | 91.48 | 84.82 |  |  | 
Cc1c(C)c2c(c(C)c1O)CCC(C)(CCCC(C)CCCC(C)CCCC(C)C)O2 (stereo not drawn) [Vitamin E, α-tocopherol] |  |  |  |  |  |  |  |  |  |  |  |  |  |  |  |  |  |  |  |  | delay in reaching the end points of institutionalization, loss of major activities of daily living, or death [2]: small but significant delay; loss of cognitive performance [2]: did not delay
CN(C)Cc1ccc2c(Cl)cc(Cl)c(O)c2n1 [PBT2] |  |  |  |  |  |  |  |  |  |  |  |  |  |  |  |  |  |  |  |  | tolerability (patients with AD; patients with AD): well-tolerated; cerebrospinal fluid (CSF) levels of amyloid-beta42 (patients with AD; within 12 weeks of treatment): significantly lowered; executive function on a Neuro-psychological Test Battery (NTB) (patients with AD; within 12 weeks of treatment): significantly improved
COc1ccc2[nH]cc(CCNC(=O)CCOCCOCCOCCOCCNC(=O)CCN3C(=O)CC(SC[C@H](N)C(=O)O)C3=O)c2c1 (stereo partly drawn) [Example 2, (2R)-2-amino-3-((1-(1-(5-methoxy-1H-indol-3-yl)-4,20-dioxo-7,10,13,16-tetraoxa-3,19-diazadocosan-22-yl)-2,5-dioxopyrrolidin-3-yl)thio)propanoic acid] | 13.97 | 7.75 | 20.49 | 14.27 | 28.06 | 21.84 | 45.62 | 39.39 | 71.79 | 65.56 | 94.48 | 88.26 | 97.13 | 90.91 | 97.12 | 90.90 | 96.55 | 90.33 | 75 | about 2 fold | Calculated Trolox® equivalents [1]: 1.97 Trolox® equivalents
COc1ccc2[nH]cc(CCNC(=O)CCCCCN3C(=O)CC(SC[C@H](N)C(=O)O)C3=O)c2c1 (stereo partly drawn) [Example 1, (2R)-2-amino-3-((1-(6-((2-(5-methoxy-1H-indol-3-yl)ethyl)amino)-6-oxohexyl)-2,5-dioxopyrrolidin-3-yl)thio)propanoic acid] | 14.99 | 8.56 | 20.01 | 13.58 | 29.51 | 23.08 | 46.55 | 40.12 | 74.68 | 68.25 | 93.56 | 87.13 | 93.03 | 86.60 | 88.39 | 81.96 | 82.12 | 75.69 | 75 | about 2 fold | Calculated Trolox® equivalents [1]: 2.02 Trolox® equivalents
